For one test, the target named is p38a MAPK (Homo sapiens (Human), UniProt Q16539). The experiment in a line: ICKP protein kinase panel screening. Type of test: biochemical. The settings on record: 1 μM, duplicate assays, read-out: mean % residual activity. On the procedure:
(§1) FIG. 3 illustrates the human kinome. Compound 69 was evaluated at the International Center For Kinase Profiling (ICKP, Dundee, Scotland) toward a panel of 50 protein kinases that provide a representative sampling of the human kinome. The results were expressed as the mean percentage of residual activity at 10 μM concentration (duplicate assays). Small disks: ≥65%, larger disk: 19%. The black square indicates the kinome region containing protein kinases evaluated in a second screening (FIG. 4, Table 4). The tree was generated using the Kinome Render software, and the illustration reproduced courtesy of Cell Signaling Technology, Inc. (www.cellsignal.com) Chartier et al PeerJ 2013, 1:e126.
(§2) FIG. 4 illustrates the studies carried out for compounds 67 and 69. Compounds 67 and 69 (FIG. 4B) were evaluated at the International Center For Kinase Profiling (ICKP, Dundee, Scotland) toward a panel of 13 protein kinases. The results (FIG. 4A) were expressed as the mean percentage of residual activity at 1 μM concentration (duplicate assays). Small disks: ≥90%, larger disk: 59%, for both compounds. The tree was generated using the Kinome Render software, and the illustration reproduced courtesy of Cell Signaling Technology, Inc. (www.cellsignal.com) Chartier et al PeerJ 2013, 1:e126.
(§3) Results are expressed as the mean percentage of residual activity at 10 μM (Table 3) or 1 μM (Table 4). They are illustrated on FIGS. 3 and 4.
(§4) Studies were undertaken to identify the possible biological target(s) of compound 69. The activation in neurons of PK such as PKCγ, ERK or p38 MAPK can contribute to pain hypersensitivity. Therefore, it was decided to screen compound 69 toward a panel of 50 PKs that provide a representative sampling of the human kinome (FIG. 3, Table 3) (Biochem. J. 2007, 408, 297-315). In this panel, p38α MAPK was identified as the privileged target, with 19% of kinase residual activity at 10 μM compound concentration.
(§5) The selectivity of compound 69 was evaluated at 1 μM toward another panel containing all four p38 MAPK isoforms, ERK1, ERK2 as well as other protein kinases close to p38α MAPK in the kinome phylogenetic tree (FIG. 4, Table 4). […] Its IC50 toward p38α MAPK was determined, showing a value in the micromolar range (IC50=3.0±0.1 μM).

In the next test the target is JNK1 (Homo sapiens (Human), UniProt P45983). Kind of test: ICKP protein kinase panel screening. Type of test: biochemical. The following applies: 1 μM, duplicate assays, read-out: mean % residual activity. As to the method: as §1, §2, §3, §4, §5
Test [1] deals with panel of 13 protein kinases. Kind of test: ICKP screening, whole panel of 13 protein kinases. Type of test: biochemical, human. The following applies: 1 μM. On the procedure:
as §2, §3, §5

In the next test the target is p38α MAPK (Homo sapiens (Human), UniProt Q16539). Kind of test: p38 alpha IC50. Format: biochemical. On the procedure: as §4, §5
In test [2] the test system is inflammatory MA (face CFA model). The experiment in a line: Face Complete Freund's Adjuvant (CFA) model of inflammatory mechanical allodynia. The following applies: rat, intracisternal 5 μL at 100 μM. Type of test: in vivo. As to the method: FIG. 1 illustrates the results obtained by the intracisternal application of compounds 19-24, 66-72 and 74-82. These compounds prevent face MA in a rat model of inflammatory pain (Complete Freund's Adjuvant (CFA), n=4-6 rats for each compound). For this assay, compounds (5 μL at 100 μM) or control vehicle were intra-cisternally administred 30 min before CFA injection.
Face Complete Freund's Adjuvant (CFA) Model.
CFA (Becton Dickinson) was dissolved in saline solution containing Tween 80 and paraffin oil and conserved at 4° C. For the behavioral tests, animals were briefly (<2 min) anesthetized using a mask with 2% isoflurane and received a subcutaneous injection of 25 μL of CFA (2.5 mg/kg) solution into the right vibrissa pad using a 27 Ga needle coupled to a 25 μL Hamilton syringe, as described previously. After injection, animals were awakened from anesthesia and placed in the behavioral experimental room, followed by a 120 min mechanical testing period.
Intracisternal Injection:
For investigating the effects of synthetized compounds upon mechanical allodynia, animals were briefly (<2 min) anesthetized using a mask with 2% isoflurane and received an intracisternal injection of 5 μL of compound (100 μM) or vehicle alone (saline+1% DMSO) using a 10 μL Hamilton syringe. After recovery (<2 min), rats were placed in an observation field (0.6×0.6 m square) under red light for a period test. 6-g von Frey filament was gently applied every 15 or 30 min onto the orofacial region by a first experimenter. The behavioral responses were observed and quantified by a second experimenter (see below).
Behavioral Responses to Normally Innocuous (6-g Von Frey Filament) Mechanical Stimulation.
The behavioral responses procedure was previously developed by Vos et al. 1994. A rat's response to mechanical stimulation consisted of one or more of the following elements: (1) detection, rat turn head toward stimulus; (2) withdrawal reaction, rat pull paw away or turn head away or pull it briskly backward when stimulation is applied (a withdrawal reaction is assumed to include a detection element preceding the head withdrawal and therefore consists of two responses elements); (3) escape/attack, rats avoid further contact with the stimulus, either passively by moving their bodies away from the stimulus, or actively by attacking the tip of the […]; (4) asymmetric grooming, rats display an uninterrupted series of at least three wash strokes directed to the stimulated area.
The in vivo efficacy of some compounds was evaluated on a rat model of inflammatory MA (face CFA model; Alba-Delgado et al J. Neurosci. 2018, 38, 10489-10504) (FIG. 1). After receiving a subcutaneous injection of 25 μL of CFA (2.5 mg/kg) into the right vibrissa pad, rats develop a MA that lasts days. […] In this model of inflammatory MA, MA was suppressed in compound 69 treated rats, in comparison to animals treated with vehicle (FIG. 2A).

A further test deals with p38d MAPK (Homo sapiens (Human), UniProt O15264). Kind of test: ICKP protein kinase panel screening. Format: biochemical. The settings on record: duplicate assays, read-out: mean % residual activity. On the procedure: as §2, §3, §5
A further test deals with p38g MAPK (Homo sapiens (Human), UniProt P53778). Kind of test: ICKP protein kinase panel screening. The settings on record: duplicate assays, read-out: mean % residual activity. Format: biochemical. On the procedure:
as §2, §3, §5

The target in a further test is JNK2 (Homo sapiens (Human), UniProt P45984). Kind of test: ICKP protein kinase panel screening. Type of test: biochemical. The settings on record: duplicate assays, read-out: mean % residual activity. As to the method: as §2, §3, §5
The next test concerns the target ERK1 (Homo sapiens (Human), UniProt P27361). The experiment in a line: ICKP protein kinase panel screening. Type of test: biochemical. The settings on record: duplicate assays, read-out: mean % residual activity. On the procedure: as §2, §3, §5
For the next test, the target named is ERK5 (Homo sapiens (Human), UniProt Q13164). Kind of test: ICKP protein kinase panel screening. Format: biochemical. The following applies: duplicate assays, read-out: mean % residual activity. As to the method: as §2, §3, §5
The target of another test is CDK5 (Homo sapiens (Human), UniProt Q00535). The experiment in a line: ICKP protein kinase panel screening. Format: biochemical. The following applies: duplicate assays, read-out: mean % residual activity. As to the method:
as §2, §3, §5

The next test has as its target JNK3 (Homo sapiens (Human), UniProt P53779). The experiment in a line: ICKP protein kinase panel screening. The settings on record: duplicate assays, read-out: mean % residual activity. Type of test: biochemical. As to the method:
as §2, §3, §5

For another test, the target named is CDK2-Cyclin A (Homo sapiens (Human), UniProt P24941). Kind of test: ICKP protein kinase panel screening. Format: biochemical. The following applies: duplicate assays, read-out: mean % residual activity. On the procedure:
as §2, §3, §5

Another test deals with ERK8 (Homo sapiens (Human), UniProt Q8TD08). The experiment in a line: ICKP protein kinase panel screening. The settings on record: duplicate assays, read-out: mean % residual activity. Type of test: biochemical. On the procedure:
as §2, §3, §5

The target of the next test is ERK2 (Homo sapiens (Human), UniProt P28482). The experiment in a line: ICKP protein kinase panel screening. Type of test: biochemical. The settings on record: duplicate assays, read-out: mean % residual activity. As to the method:
as §2, §3, §5

The next test deals with p38b MAPK (Homo sapiens (Human), UniProt Q15759). Kind of test: ICKP protein kinase panel screening. Format: biochemical. The following applies: duplicate assays, read-out: mean % residual activity. On the procedure: as §2, §3, §5

Molecules are shown by their SMILES. “Also recorded” adds a separate entry of the source. Where two headings read alike, the source gives them in different places.

Sequence of p38α MAPK (Q16539 whole entry): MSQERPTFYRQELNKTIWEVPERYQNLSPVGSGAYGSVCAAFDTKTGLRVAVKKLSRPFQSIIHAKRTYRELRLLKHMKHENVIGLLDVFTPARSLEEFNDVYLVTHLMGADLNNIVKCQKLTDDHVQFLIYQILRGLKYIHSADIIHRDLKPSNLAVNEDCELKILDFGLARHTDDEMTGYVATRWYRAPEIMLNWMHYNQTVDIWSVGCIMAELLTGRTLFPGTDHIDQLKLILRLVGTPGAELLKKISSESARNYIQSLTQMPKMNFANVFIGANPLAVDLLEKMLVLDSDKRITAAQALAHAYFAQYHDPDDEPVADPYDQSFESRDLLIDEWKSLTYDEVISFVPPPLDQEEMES
Sequence of JNK2 (P45984 whole entry): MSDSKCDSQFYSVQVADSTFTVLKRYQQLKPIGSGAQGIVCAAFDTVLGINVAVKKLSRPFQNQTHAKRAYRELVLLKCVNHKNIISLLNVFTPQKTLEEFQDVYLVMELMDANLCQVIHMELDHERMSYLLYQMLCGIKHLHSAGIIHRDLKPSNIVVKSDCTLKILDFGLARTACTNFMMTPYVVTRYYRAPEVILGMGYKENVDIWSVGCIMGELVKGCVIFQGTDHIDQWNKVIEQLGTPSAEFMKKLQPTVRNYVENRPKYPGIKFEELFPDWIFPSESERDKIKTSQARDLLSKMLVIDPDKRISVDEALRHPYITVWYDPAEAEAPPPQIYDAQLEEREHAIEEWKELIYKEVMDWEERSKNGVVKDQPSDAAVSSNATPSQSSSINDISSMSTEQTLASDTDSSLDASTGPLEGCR
Sequence of p38g MAPK (P53778 whole entry): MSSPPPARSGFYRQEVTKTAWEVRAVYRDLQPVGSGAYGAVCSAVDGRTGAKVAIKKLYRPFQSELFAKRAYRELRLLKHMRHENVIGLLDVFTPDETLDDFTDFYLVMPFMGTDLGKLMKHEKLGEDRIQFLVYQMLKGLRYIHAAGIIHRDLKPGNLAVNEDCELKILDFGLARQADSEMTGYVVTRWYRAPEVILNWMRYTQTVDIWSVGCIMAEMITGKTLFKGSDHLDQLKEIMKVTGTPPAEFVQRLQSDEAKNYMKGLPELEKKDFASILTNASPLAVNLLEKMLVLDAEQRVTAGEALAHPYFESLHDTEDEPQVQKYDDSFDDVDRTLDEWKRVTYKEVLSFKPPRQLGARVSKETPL
Sequence of p38b MAPK (Q15759 whole entry): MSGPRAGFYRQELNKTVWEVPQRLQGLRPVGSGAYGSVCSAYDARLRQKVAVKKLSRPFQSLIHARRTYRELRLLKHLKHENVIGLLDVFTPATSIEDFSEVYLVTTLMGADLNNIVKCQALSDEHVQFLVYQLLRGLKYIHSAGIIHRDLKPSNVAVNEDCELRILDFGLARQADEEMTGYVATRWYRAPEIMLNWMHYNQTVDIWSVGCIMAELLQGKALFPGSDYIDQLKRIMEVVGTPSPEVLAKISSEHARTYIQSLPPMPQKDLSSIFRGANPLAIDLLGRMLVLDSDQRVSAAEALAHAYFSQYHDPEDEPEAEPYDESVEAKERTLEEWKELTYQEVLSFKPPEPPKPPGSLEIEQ
Sequence of JNK1 (P45983 whole entry): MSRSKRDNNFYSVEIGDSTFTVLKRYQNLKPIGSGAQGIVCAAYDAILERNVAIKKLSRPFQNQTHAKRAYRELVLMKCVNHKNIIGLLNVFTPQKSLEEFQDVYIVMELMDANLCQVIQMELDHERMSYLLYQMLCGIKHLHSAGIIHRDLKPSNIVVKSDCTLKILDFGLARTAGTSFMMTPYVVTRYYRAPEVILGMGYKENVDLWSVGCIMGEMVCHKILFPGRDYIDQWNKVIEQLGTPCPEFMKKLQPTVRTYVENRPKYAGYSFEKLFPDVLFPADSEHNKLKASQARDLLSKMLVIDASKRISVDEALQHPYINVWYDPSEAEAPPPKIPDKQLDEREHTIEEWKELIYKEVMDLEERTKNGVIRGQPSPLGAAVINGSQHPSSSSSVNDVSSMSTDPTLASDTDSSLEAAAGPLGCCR
Sequence of CDK5 (Q00535 whole entry): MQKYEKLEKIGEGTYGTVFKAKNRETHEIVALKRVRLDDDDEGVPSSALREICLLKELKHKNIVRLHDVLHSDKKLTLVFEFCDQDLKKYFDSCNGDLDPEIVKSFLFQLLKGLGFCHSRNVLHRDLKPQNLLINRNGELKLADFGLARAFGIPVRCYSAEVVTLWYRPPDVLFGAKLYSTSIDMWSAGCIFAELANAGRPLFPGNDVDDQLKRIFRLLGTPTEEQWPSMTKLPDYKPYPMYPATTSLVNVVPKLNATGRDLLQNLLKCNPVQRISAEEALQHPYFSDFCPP
Sequence of CDK5 (Q15078 whole entry partner): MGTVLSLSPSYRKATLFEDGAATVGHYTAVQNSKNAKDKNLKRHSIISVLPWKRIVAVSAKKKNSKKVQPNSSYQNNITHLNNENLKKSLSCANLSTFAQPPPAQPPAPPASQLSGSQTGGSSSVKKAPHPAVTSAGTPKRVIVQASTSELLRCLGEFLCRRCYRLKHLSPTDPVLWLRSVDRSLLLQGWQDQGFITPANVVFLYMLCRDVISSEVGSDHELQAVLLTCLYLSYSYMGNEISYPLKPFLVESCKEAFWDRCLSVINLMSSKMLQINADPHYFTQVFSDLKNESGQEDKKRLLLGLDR
Sequence of ERK1 (P27361 whole entry): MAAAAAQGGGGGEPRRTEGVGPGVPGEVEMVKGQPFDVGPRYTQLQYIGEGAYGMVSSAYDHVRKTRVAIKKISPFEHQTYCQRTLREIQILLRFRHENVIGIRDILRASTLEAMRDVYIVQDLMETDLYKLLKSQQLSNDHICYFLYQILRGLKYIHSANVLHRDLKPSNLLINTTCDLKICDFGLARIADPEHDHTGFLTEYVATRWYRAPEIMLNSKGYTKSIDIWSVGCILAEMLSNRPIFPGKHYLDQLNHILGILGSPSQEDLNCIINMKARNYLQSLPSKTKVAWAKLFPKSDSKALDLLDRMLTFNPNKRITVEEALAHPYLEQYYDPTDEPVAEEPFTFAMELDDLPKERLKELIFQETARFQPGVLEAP
Sequence of ERK8 (Q8TD08 whole entry): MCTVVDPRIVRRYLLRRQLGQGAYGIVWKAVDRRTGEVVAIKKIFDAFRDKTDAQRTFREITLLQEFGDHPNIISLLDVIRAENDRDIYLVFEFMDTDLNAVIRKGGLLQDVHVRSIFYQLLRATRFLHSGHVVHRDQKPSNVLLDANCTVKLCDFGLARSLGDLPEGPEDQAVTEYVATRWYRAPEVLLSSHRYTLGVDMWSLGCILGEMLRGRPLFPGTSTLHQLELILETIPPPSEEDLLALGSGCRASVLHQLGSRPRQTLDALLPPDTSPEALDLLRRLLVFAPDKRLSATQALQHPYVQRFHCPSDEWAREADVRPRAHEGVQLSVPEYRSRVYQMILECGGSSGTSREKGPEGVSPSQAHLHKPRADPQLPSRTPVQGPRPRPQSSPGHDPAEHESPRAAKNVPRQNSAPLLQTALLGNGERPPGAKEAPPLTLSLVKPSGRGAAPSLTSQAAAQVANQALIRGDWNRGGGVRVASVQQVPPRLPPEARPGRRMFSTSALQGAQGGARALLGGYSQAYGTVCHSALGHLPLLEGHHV
Sequence of ERK5 (Q13164 whole entry): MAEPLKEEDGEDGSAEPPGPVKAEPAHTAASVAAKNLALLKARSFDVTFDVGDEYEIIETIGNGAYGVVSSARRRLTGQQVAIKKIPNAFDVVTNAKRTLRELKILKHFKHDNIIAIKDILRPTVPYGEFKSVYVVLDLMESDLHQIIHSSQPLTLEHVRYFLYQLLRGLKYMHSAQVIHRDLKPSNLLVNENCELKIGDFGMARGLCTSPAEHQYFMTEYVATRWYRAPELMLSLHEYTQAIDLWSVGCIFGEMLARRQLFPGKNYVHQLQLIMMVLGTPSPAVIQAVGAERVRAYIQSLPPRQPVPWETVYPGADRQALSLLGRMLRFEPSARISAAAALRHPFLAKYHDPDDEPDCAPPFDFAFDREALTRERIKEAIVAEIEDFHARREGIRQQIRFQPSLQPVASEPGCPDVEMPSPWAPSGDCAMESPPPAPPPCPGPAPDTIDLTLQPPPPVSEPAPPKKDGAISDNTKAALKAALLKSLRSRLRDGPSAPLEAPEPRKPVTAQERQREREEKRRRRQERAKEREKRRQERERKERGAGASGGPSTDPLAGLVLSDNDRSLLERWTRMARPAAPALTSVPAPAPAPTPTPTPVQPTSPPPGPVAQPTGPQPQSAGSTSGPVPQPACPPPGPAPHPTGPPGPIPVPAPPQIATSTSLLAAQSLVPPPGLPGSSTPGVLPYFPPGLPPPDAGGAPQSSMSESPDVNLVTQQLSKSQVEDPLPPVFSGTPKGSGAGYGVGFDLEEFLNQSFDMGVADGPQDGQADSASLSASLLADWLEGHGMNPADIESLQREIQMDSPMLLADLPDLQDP
Sequence of JNK3 (P53779 whole entry): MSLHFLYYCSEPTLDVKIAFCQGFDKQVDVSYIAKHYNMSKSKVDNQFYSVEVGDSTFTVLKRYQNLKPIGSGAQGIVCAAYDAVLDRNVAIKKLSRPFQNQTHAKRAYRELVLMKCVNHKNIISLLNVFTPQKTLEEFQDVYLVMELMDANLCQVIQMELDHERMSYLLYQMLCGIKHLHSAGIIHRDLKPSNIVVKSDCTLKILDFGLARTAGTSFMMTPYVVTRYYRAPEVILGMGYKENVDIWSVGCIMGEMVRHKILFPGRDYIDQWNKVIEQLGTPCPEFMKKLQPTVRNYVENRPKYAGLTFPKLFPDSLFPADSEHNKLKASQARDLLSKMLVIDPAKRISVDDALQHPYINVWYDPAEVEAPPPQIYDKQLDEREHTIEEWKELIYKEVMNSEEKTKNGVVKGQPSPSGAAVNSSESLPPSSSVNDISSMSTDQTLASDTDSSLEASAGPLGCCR
Sequence of p38a MAPK (Q16539 whole entry): as the sequence (Q16539 whole entry) above

In the case of `O=c1[nH]cc(Nc2ccccc2)cc1-c1cccc2[nH]ccc12` [Compound 67, 3-(1H-Indol-4-yl)-5-(phenylamino)pyridin-2(1H)-one], the remaining activity at 1 µM at p38a MAPK amounted to 59%; at JNK1, 94%; at p38d MAPK, 113%; on p38g MAPK, 107%; on JNK2 it was 103%; at ERK1 it was 122%. The remaining activity at 1 µM came out at 113% on ERK5; 101% on CDK5; 98% on JNK3; 111% at CDK2-Cyclin A; 128% on ERK8; 108% on ERK2. For the same molecule, the remaining activity at 1 µM at p38b MAPK is 112%. For the same molecule, the “mean percentage of residual activity, other kinases of the panel (small disks)” value in test [1] (all kinases except p38α MAPK) is given as at least 90%. Moreover, the “selectivity for p38α MAPK over the other protein kinases incl. p38 isoforms” value in test [1] (panel of 13 kinases) is “same selectivity profile; also recorded: selective p38α MAPK inhibitor”. Further, the half-inhibitory concentration (IC50) at p38α MAPK (p38 alpha, read-out: Mean IC50) was 3.03 µM; on p38α MAPK (read-out: IC50 toward p38α MAPK), 3 ± 0.1 µM. The “prevention of inflammatory MA (allodynic score, 6-g von Frey filament)” value in test [2] (30 min before CFA) is “strong anti-allodynic activity; also recorded: most active”. For the same molecule, the “inhibition of inflammatory MA” value in test [2] (30 min before CFA injection) is on record as 98%.

A word on the IC50: it is the concentration that gives 50% inhibition.

The values are drawn from US12351556B2, “Pyridin-2(1H)one derivatives, their preparation and their use for the treatment of pain” (INSTITUT NATIONAL DE LA SANTE ET DE LA RECHERCHE MEDICALE …, priority 2019, dated 2025).
